Measured values taken from patent US20250059174A1, “Pharmaceutical Compounds and Compositions as C-Kit Kinase Inhibitors” (Enanta Pharmaceuticals, Inc., priority 2023, published 2025).
Blank lines part the entries; values can stand above or below the molecule they belong to.

Key:
M-07e cells = assay: M-07e cellular assay (SCF-mediated cell proliferation); type: cell-based; settings: Homo sapiens, 72 hours, CellTiter Glo
In short: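 CellTiter Glo luminescence after 72 h compound exposure in SCF (EC90)-stimulated M-07e cells expressing endogenous human c-KIT.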

[1] = target: Recombinant human c-KIT kinase (Homo sapiens (Human), UniProt P10721); assay: c-KIT kinase chemiluminescence assay (ADP-Glo); type: biochemical; settings: ATP 50 μM
Chain of Recombinant human c-KIT kinase (P10721 26-976): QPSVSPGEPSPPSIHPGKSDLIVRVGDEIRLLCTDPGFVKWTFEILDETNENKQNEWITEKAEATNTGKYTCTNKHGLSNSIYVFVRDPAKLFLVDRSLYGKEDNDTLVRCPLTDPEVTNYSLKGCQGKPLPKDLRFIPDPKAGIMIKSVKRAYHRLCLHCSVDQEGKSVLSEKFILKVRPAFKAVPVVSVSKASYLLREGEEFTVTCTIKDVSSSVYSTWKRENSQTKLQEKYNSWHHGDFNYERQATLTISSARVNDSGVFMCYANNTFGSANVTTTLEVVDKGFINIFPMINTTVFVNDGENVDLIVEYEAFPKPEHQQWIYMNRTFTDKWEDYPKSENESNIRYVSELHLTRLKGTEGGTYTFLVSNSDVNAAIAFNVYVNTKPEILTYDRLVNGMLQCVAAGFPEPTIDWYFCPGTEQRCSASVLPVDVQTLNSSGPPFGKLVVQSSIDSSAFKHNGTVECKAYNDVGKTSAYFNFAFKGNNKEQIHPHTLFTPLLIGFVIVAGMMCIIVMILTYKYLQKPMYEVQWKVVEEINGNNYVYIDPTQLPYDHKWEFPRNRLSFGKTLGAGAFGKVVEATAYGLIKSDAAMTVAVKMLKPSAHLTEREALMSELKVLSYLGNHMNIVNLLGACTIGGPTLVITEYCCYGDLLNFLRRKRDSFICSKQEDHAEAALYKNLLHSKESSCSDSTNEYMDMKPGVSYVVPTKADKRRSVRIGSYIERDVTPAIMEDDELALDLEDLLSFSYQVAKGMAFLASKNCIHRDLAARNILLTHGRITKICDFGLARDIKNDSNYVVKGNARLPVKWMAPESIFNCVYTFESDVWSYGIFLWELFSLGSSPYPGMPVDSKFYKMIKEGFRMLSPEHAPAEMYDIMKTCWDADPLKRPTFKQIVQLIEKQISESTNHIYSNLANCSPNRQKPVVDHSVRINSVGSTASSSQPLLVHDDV
In short: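 Recombinant human c-KIT preincubated 30 min at RT in 40 mM Tris pH 7.5, 20 mM MgCl2, 0.1 mg/mL BSA, 50 μM DTT, then reacted 2 h at RT with ATP and polyEY substrate. ADP-Glo luminescence readout; activity normalized to high/low controls, IC50 and Hill coefficient from inhibitor-versus-normalized-response fit.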

SMILES: Cc1ccc(-c2noc([C@H]3C[C@@H]3F)n2)cc1NC(=O)c1cnc(-c2ccc(C(C)(C)O)s2)o1 [Example 308]
EC50 (M-07e cells): > 1000 nM | IC50 [1]: > 1000 nM

SMILES: Cc1ncc(-c2nnn(C3CC(F)(F)C3)n2)cc1NC(=O)c1cnn2ccc(N3CC4(C3)CC(O)(C(F)F)C4)cc12 [Example 312]
EC50 (M-07e cells): < 100 nM | IC50 [1]: 100 to 1000 nM

SMILES: Cc1ccc(-c2ncc(OC(F)F)cn2)cc1NC(=O)c1cnn2ccc(N3CC4(C3)CC(O)(C(F)F)C4)cc12 [Example 314]
EC50 (M-07e cells): < 100 nM | IC50 [1]: < 100 nM

SMILES: Cc1ccc(-c2ncc(OC(F)(F)F)cn2)cc1NC(=O)c1cnn2ccc(N3CC4(C3)CC(O)(C(F)F)C4)cc12 [Example 315]
EC50 (M-07e cells): < 100 nM | IC50 [1]: < 100 nM

SMILES: Cc1ncc(-c2ncc(OC(F)F)cn2)cc1NC(=O)c1cnn2ccc(N3CC4(C3)CC(O)(C(F)F)C4)cc12 [Example 316]
EC50 (M-07e cells): 100 to 1000 nM | IC50 [1]: 100 to 1000 nM

SMILES: Cc1ncc(-c2ncc(C3CC3)cn2)cc1NC(=O)c1cnn2ccc(N3CC4(C3)CC(O)(C(F)F)C4)cc12 [Example 317]
EC50 (M-07e cells): < 100 nM | IC50 [1]: 100 to 1000 nM

SMILES: Cc1ccc(-c2nc3cc(F)ccn3n2)cc1NC(=O)c1cnn2ccc(N3CC4(C3)CC(O)(C(F)F)C4)cc12 [Example 318]
EC50 (M-07e cells): < 100 nM | IC50 [1]: < 100 nM

SMILES: Cc1ccc(-c2ncc3c(ccn3C(F)F)n2)cc1NC(=O)c1cnn2ccc(N3CC4(C3)CC(O)(C(F)F)C4)cc12 [Example 319]
EC50 (M-07e cells): < 100 nM | IC50 [1]: < 100 nM

SMILES: Cc1ccc(-c2ncc3cccn3n2)cc1NC(=O)c1cnn2ccc(N3CC4(C3)CC(O)(C(F)F)C4)cc12 [Example 320]
EC50 (M-07e cells): < 100 nM | IC50 [1]: < 100 nM

SMILES: Cc1ccc(-c2nc3n(n2)CCCC3)cc1NC(=O)c1cnn2ccc(N3CC4(C3)CC(O)(C(F)F)C4)cc12 [Example 321]
EC50 (M-07e cells): 100 to 1000 nM | IC50 [1]: 100 to 1000 nM

SMILES: Cc1ccc(-c2nc3n(n2)CCN(C(=O)OC(C)(C)C)C3)cc1NC(=O)c1cnn2ccc(N3CC4(C3)CC(O)(C(F)F)C4)cc12 [Example 322]
EC50 (M-07e cells): 100 to 1000 nM | IC50 [1]: < 100 nM

SMILES: Cc1ccc(-c2nc3n(n2)CCN(C(=O)C2CC2)C3)cc1NC(=O)c1cnn2ccc(N3CC4(C3)CC(O)(C(F)F)C4)cc12 [Example 323]
EC50 (M-07e cells): > 1000 nM | IC50 [1]: 100 to 1000 nM

SMILES: COC(=O)N1CCn2nc(-c3ccc(C)c(NC(=O)c4cnn5ccc(N6CC7(C6)CC(O)(C(F)F)C7)cc45)c3)nc2C1 [Example 324]
EC50 (M-07e cells): 100 to 1000 nM | IC50 [1]: 100 to 1000 nM

SMILES: Cc1ncc(-c2ncc(C(C)C)cn2)cc1NC(=O)c1cnn2ccc(N3CC4(C3)CC(O)(C(F)F)C4)cc12 [Example 326]
EC50 (M-07e cells): < 100 nM | IC50 [1]: < 100 nM

SMILES: Cc1ncc(-c2ncc(C(F)F)cn2)cc1NC(=O)c1cnn2ccc(N3CC4(C3)CC(O)(C(F)F)C4)cc12 [Example 327]
EC50 (M-07e cells): 100 to 1000 nM | IC50 [1]: 100 to 1000 nM

SMILES: Cc1ncc(-c2ncc(C(F)(F)F)cn2)cc1NC(=O)c1cnn2ccc(N3CC4(C3)CC(O)(C(F)F)C4)cc12 [Example 328]
EC50 (M-07e cells): < 100 nM | IC50 [1]: 100 to 1000 nM

SMILES: Cc1ccc(-c2cnc(OC(F)F)nc2)cc1NC(=O)c1cnn2ccc(N3CC4(COC4)C3)cc12 [Example 329]
EC50 (M-07e cells): 100 to 1000 nM | IC50 [1]: < 100 nM

SMILES: Cc1ncc(-c2ccc(OC(F)F)nc2)cc1NC(=O)c1cnn2ccc(N3CC4(COC4)C3)cc12 [Example 330]
EC50 (M-07e cells): < 100 nM | IC50 [1]: 100 to 1000 nM

SMILES: Cc1ncc(-c2ccc(OC(F)F)cn2)cc1NC(=O)c1cnn2ccc(N3CC4(C3)CC(O)(C(F)F)C4)cc12 [Example 331]
EC50 (M-07e cells): < 100 nM | IC50 [1]: 100 to 1000 nM

SMILES: Cc1ncc(-c2ccc(OC(F)(F)F)cn2)cc1NC(=O)c1cnn2ccc(N3CC4(COC4)C3)cc12 [Example 332]
EC50 (M-07e cells): < 100 nM | IC50 [1]: 100 to 1000 nM

SMILES: Cc1ncc(-c2ccc(OC(F)(F)F)cn2)cc1NC(=O)c1cnn2ccc(N3CC4(C3)CC(O)(C(F)F)C4)cc12 [Example 333]
EC50 (M-07e cells): < 100 nM | IC50 [1]: < 100 nM

SMILES: Cc1ccc(-c2nccc(C3CC3)n2)cc1NC(=O)c1cnn2ccc(N3CC4(COC4)C3)cc12 [Example 334]
EC50 (M-07e cells): < 100 nM | IC50 [1]: 100 to 1000 nM

SMILES: Cc1ccc(-c2ncc(C3CC3)cn2)cc1NC(=O)c1cnn2ccc(N3CC4(COC4)C3)cc12 [Example 335]
EC50 (M-07e cells): < 100 nM | IC50 [1]: < 100 nM

SMILES: Cc1ccc(-c2ccc(C3CC3)cn2)cc1NC(=O)c1cnn2ccc(N3CC4(COC4)C3)cc12 [Example 336]
EC50 (M-07e cells): < 100 nM | IC50 [1]: < 100 nM

SMILES: Cc1ccc(-c2ncc(C(F)(F)F)cn2)cc1NC(=O)c1cnn2ccc(N3CC4(COC4)C3)cc12 [Example 337]
EC50 (M-07e cells): < 100 nM | IC50 [1]: 100 to 1000 nM

SMILES: Cc1ccc(-c2ncc(OC(F)F)cn2)cc1NC(=O)c1cnn2ccc(N3CC4(COC4)C3)cc12 [Example 338]
EC50 (M-07e cells): < 100 nM | IC50 [1]: 100 to 1000 nM

SMILES: Cc1ccc(-c2ncc(C3CC3)cn2)cc1NC(=O)c1cnn2ccc(N3CC4(C3)CC(O)(C(F)F)C4)cc12 [Example 339]
EC50 (M-07e cells): < 100 nM | IC50 [1]: < 100 nM

Continued, in another order:

IC50 [1]: 100 to 1000 nM
SMILES: Cc1ccc(-c2noc([C@H]3C[C@@H]3F)n2)cc1NC(=O)c1cnc(-c2ccc3c(c2)O[C@@H](C)CN3)o1 [Example 308-53]
EC50 (M-07e cells): 100 to 1000 nM

IC50 [1]: 100 to 1000 nM
SMILES: Cc1ccc(-c2noc([C@H]3C[C@@H]3F)n2)cc1NC(=O)c1cnc(-c2ccc3c(c2)O[C@H](C)CN3)o1 [Example 308-54]
EC50 (M-07e cells): 100 to 1000 nM

IC50 [1]: 100 to 1000 nM
SMILES: Cc1ccc(-c2noc([C@H]3C[C@@H]3F)n2)cc1NC(=O)c1cnc(-c2ccc3c(c2)CC(=O)N3C)o1 [Example 308-55]
EC50 (M-07e cells): 100 to 1000 nM

IC50 [1]: 100 to 1000 nM
SMILES: Cc1ccc(-c2noc([C@H]3C[C@@H]3F)n2)cc1NC(=O)c1cnc(-c2ccc3[nH]c4c(c3c2)CCN(C(=O)OC(C)(C)C)C4)o1 [Example 308-56]
EC50 (M-07e cells): 100 to 1000 nM

IC50 [1]: < 100 nM
SMILES: Cc1ccc(-c2noc([C@H]3C[C@@H]3F)n2)cc1NC(=O)c1cnc(-c2ccc3[nH]c4c(c3c2)CCNC4)o1 [Example 308-57]
EC50 (M-07e cells): 100 to 1000 nM

IC50 [1]: < 100 nM
SMILES: COC(=O)N1CC(c2nc(-c3ccc(C)c(NC(=O)c4cnc(-c5ccc6c(c5)CC(=O)N6)o4)c3)no2)C1 [Example 308-58]
EC50 (M-07e cells): 100 to 1000 nM

IC50 [1]: 100 to 1000 nM
SMILES: COC(=O)N1CC(c2nc(-c3cc(NC(=O)c4cnc(-c5ccc6c(c5)CC(=O)N6)o4)c(C)cc3F)no2)C1 [Example 308-59]
EC50 (M-07e cells): 100 to 1000 nM

IC50 [1]: > 1000 nM
SMILES: Cc1ccc(-c2noc(C3CN(C(=O)OCc4ccccc4)C3)n2)cc1NC(=O)c1cnc(-c2ccc3c(c2)CC(=O)N3)o1 [Example 308-60]
EC50 (M-07e cells): > 1000 nM

IC50 [1]: 100 to 1000 nM
SMILES: Cc1ccc(-c2noc([C@H]3C[C@@H]3F)n2)cc1NC(=O)c1cnc(-c2ccc3c(c2)C(C)C(=O)N3)o1 (stereo partly shown) [Example 308-61]
EC50 (M-07e cells): 100 to 1000 nM

IC50 [1]: 100 to 1000 nM
SMILES: Cc1ccc(-c2noc(C3CN(C(=O)OC(C)C)C3)n2)cc1NC(=O)c1cnc(-c2ccc3c(c2)CC(=O)N3)o1 [Example 308-62]
EC50 (M-07e cells): > 1000 nM

IC50 [1]: 100 to 1000 nM
SMILES: Cc1ccc(-c2noc(C3CN(C(=O)OC4CC4)C3)n2)cc1NC(=O)c1cnc(-c2ccc3c(c2)CC(=O)N3)o1 [Example 308-63]
EC50 (M-07e cells): 100 to 1000 nM

IC50 [1]: > 1000 nM
SMILES: Cc1ncc(-c2nnnn2C)cc1NC(=O)c1cnn2ccc(N3CC4(C3)CC(O)(C(F)F)C4)cc12 [Example 312-1]
EC50 (M-07e cells): > 1000 nM

IC50 [1]: 100 to 1000 nM
SMILES: Cc1ncc(-c2nnn(C)n2)cc1NC(=O)c1cnn2ccc(N3CC4(C3)CC(O)(C(F)F)C4)cc12 [Example 312-2]
EC50 (M-07e cells): < 100 nM

IC50 [1]: > 1000 nM
SMILES: [2H]C([2H])([2H])n1nnnc1-c1cnc(C)c(NC(=O)c2cnn3ccc(N4CC5(C4)CC(O)(C(F)F)C5)cc23)c1 [Example 312-3]
EC50 (M-07e cells): > 1000 nM

IC50 [1]: 100 to 1000 nM
SMILES: [2H]C([2H])([2H])n1nnc(-c2cnc(C)c(NC(=O)c3cnn4ccc(N5CC6(C5)CC(O)(C(F)F)C6)cc34)c2)n1 [Example 312-4]
EC50 (M-07e cells): < 100 nM

IC50 [1]: > 1000 nM
SMILES: Cc1ncc(-c2nnn(CC(F)(F)F)n2)cc1NC(=O)c1cnn2ccc(N3CC4(C3)CC(O)(C(F)F)C4)cc12 [Example 312-5]
EC50 (M-07e cells): < 100 nM

IC50 [1]: > 1000 nM
SMILES: Cc1ncc(-c2nnn(C(C)C)n2)cc1NC(=O)c1cnn2ccc(N3CC4(C3)CC(O)(C(F)F)C4)cc12 [Example 312-6]
EC50 (M-07e cells): < 100 nM

IC50 [1]: 100 to 1000 nM
SMILES: Cc1ncc(-c2nnn(CC3CC3)n2)cc1NC(=O)c1cnn2ccc(N3CC4(C3)CC(O)(C(F)F)C4)cc12 [Example 312-7]
EC50 (M-07e cells): < 100 nM

IC50 [1]: > 1000 nM
SMILES: Cc1ncc(-c2nnn(C3CNC3)n2)cc1NC(=O)c1cnn2ccc(N3CC4(C3)CC(O)(C(F)F)C4)cc12 [Example 312-8]
EC50 (M-07e cells): > 1000 nM

IC50 [1]: > 1000 nM
SMILES: Cc1ncc(-c2nnn(C3CN(C(=O)OC(C)(C)C)C3)n2)cc1NC(=O)c1cnn2ccc(N3CC4(C3)CC(O)(C(F)F)C4)cc12 [Example 312-9]
EC50 (M-07e cells): 100 to 1000 nM
